Measured values as given in patent US10597398B2, “Suppression and regeneration promoting effect of low molecular weight compound on cancer and fibrosis” (NATIONAL UNIVERSITY CORPORATION TOTTORI UNIVERSITY, priority 2015, dated 2020).

How the values were obtained:
Wnt/β-catenin signal = conditions: as described in Patent Literature 1; cited from earlier work
cancer stem cells = conditions: Fbxw7-deficient model mice, Takeishi et al. 2013; cited from earlier work
CD44high DLD-1 cells = test: CD44high cells in DLD-1 cells (FCM analysis); assay type: cell-based, human; conditions: 48 h, 50 μM IC-2, 0.5 or 5 μM 5-FU, compared with control
Experimental: In addition, DLD-1 cells were seeded at 1×10^6 cells/10-cm cell culture dish. After 24 h, the cells were treated with 0.5 or 5 μM of 5-FU or 50 μM of IC-2. At additional 48 h, the cells were harvested. As a primary antibody, used was a mouse anti-human CD44 antibody (Abcam Ltd., Cambridge, UK). Then, Alexa Fluor 488-labeled goat anti-mouse IgG (H+L) (Life Technologies Corp., Carlsbad, Calif.) was used. After that, a MoFlo XDP (Beckman Coulter Inc., Fullerton, Calif.) was used for analysis.

[1] = tested on: CD44-expressing HSC2 cells; test: CD44-expressing cells in HSC2 cells (cell sorter analysis); assay type: cell-based, human; conditions: 48 h, 25 μM IC-2 or 0.5 μM 5-FU, 83.9% without treatment
Experimental: In addition, HSC2 cells were seeded at 5×10^5 cells/10-cm cell culture dish (TPP). After 24 h, the cells were treated with 0.5 μM of 5-FU or 25 μM of IC-2. Also prepared were cells without low-molecular-weight compound treatment (0 μM). After additional 48 h, the respective cells were harvested. As a primary antibody, used was a mouse anti-human CD44 antibody (Abcam Ltd., Cambridge, UK). Then, Alexa Fluor 488-labeled goat anti-mouse IgG (H+L) (Life Technologies Corp., Carlsbad, Calif.) was used. After that, a cell sorter BD bioscience FACS Aria (Becton, Dickinson and Company, Franklin Lakes, N.J.) was used for analysis.

[2] = Liver cancer model mouse, body weight; assay type: in vivo, mice; conditions: 30 mg/kg 5-FU or 50 mg/kg IC-2 intraperitoneally every three days
Experimental: CD44-positive HuH-7 cells were subcutaneously transplanted in mice. Next, the engrafted mice were divided into 3 groups (DMSO group: 5 mice; 5-FU group: 4 mice; and IC-2 group: 4 mice). Then, DMSO was added to prepare 30 mg/kg of 5-FU and 50 mg/kg of IC-2 such that each liquid volume was 100 μL; and 100% DMSO, a solvent for each drug, was used as a control sample. Subsequently, each drug was dosed intraperitoneally every three days. The body weight of each mouse and the long and short diameters of a tumor were measured every three days. The tumor volume was calculated by using the following equation: Tumor volume=Long diameter×(Short diameter)^2×0.5. The volume at Day 0 was used to normalize each tumor volume, and then a graph was created. To fully evaluate a 5-FU effect, the 5-FU dose was set to an amount 2 times the regular amount 15 mg/kg used in research articles. The concentration of IC-2 corresponding to a concentration at which Wnt/β-catenin signaling was inhibited in vitro was calculated. Then, the concentration was doubled to set an IC-2 dose.

[3] = tested on: cancer stem cells (CD44) in HuH-7 cells; test: Inhibitory effect on cancer stem cells (FCM analysis of CD44), Example 6.4; assay type: cell-based, human; conditions: CD44, day 2, IC-2 50 μM, 5-FU 0.5 μM, compared with control 1% DMSO
Experimental: CD44, a cancer stem cell marker, was used as an indicator to examine an inhibitory effect of IC-2 on cancer stem cells. First, 70 to 90% confluent HuH-7 cells were harvested and seeded at 1.5×10^6 cells per 10-cm cell culture dish. After 15 h, the cells were treated with hexachlorophene (15 μM), ICG-001 (15 μM), PKF118-310 (5 μM), IC-2 (50 μM), or 5-FU (0.5 μM), and the mixture was cultured at 37° C. Each control sample used was 1% DMSO, a solvent for each compound or the anti-cancer drug. Day 2 after the drug treatment, the cells were harvested from each culture dish. The cells were centrifuged at 1000 rpm and at 4° C. for 5 min to remove a supernatant and were then washed twice with 1 mL of 0.5% FBS/2 mM EDTA/PBS. Next, the cells were suspended in 500 μL of 5% BSA/0.5% FBS/2 mM EDTA/PBS for blocking at 4° C. for 15 min.
Then, 5 μL of a mouse anti-human CD44 monoclonal antibody (156-3C11, Cell Signaling Technology Inc., Danvers, Mass.) was added to 500 μL of the cell suspension. The mixture was resuspended and subjected to a primary antibody reaction in a dark room at 4° C. for 10 min. After that, the cells were washed 3 times with 1 mL of PBS. Subsequently, 1.0 μg of Alexa Fluor 488-labeled IgG (H+L) (Life Technologies Corp., Carlsbad, Calif.) was added and the mixture was suspended. Then, a secondary antibody reaction was carried out in a dark room at 4° C. for 10 min. […]

In the case of `COc1c(Cl)cc(Cl)c(Cl)c1Cc1c(Cl)c(Cl)cc(Cl)c1OC` [HC-1, hexachlorophene methyl ether bis(2,3,5-trichloro-6-methoxyphenyl)methane], the “Wnt/β-catenin signal in a mesenchymal stem cell and differentiation into hepatocytes” value (Wnt/β-catenin signal) is given as “inhibit a Wnt/β-catenin signal in a mesenchymal stem cell, thereby inducing differentiation of the mesenchymal stem cell into hepatocytes”.

In the case of `Cc1ccc(NC(=O)c2ccc(CN3CCN(C)CC3)cc2)cc1Nc1nccc(-c2cccnc2)n1` [imatinib], the cancer stem cells (cancer stem cells) is given as “cancer stem cells were killed”.

For `O=c1[nH]cc(F)c(=O)[nH]1` [Compound 5-FU, 5-fluorouracil, reference compound], the “percentage of CD44high cells” value (CD44high DLD-1 cells) was “rather increased the percentage”, the “percentage of CD44-expressing cells” value [1] was 83.3% and the body weight [2] was “no change in the body weight”. The “number of cancer stem cells” value [3] was “rather increased the number of cancer stem cells”.
